We go through 19 compounds from ChEMBL document CHEMBL4177618, “Design and synthesis of a novel series of (1'S,2R,4'S)-3H-4'-azaspiro[benzo[4,5]imidazo[2,1-b]oxazole-2,2'-bicyclo[2.2.2]octanes] with high affinity for the α7 neuronal nicotinic receptor” (Bioorg Med Chem Lett, 2017).

Structures are written as SMILES. Some results are limits rather than exact numbers.

Test [1] concerns the target T1, 5-hydroxytryptamine receptor 3A (Homo sapiens, UniProt P46098).
T1 sequence (P46098 whole entry): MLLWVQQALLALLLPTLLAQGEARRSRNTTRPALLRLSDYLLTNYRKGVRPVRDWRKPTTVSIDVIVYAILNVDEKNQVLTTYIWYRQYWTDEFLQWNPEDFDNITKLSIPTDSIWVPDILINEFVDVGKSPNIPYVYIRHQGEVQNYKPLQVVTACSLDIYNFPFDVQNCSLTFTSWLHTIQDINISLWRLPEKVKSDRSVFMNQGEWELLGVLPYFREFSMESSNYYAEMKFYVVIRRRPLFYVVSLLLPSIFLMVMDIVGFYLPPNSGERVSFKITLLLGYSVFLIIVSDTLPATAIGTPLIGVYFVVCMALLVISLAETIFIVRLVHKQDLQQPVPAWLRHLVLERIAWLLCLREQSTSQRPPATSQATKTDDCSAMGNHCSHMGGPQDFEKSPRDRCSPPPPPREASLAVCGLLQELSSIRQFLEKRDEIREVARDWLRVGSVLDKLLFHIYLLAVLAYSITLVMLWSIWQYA
The experiment in a line: Antagonist activity at human 5-HT3A receptor expressed in HEK293 cells assessed as inhibition of 5-HT-induced calcium flux preincubated for 30 mins prior to 5-HT addition by Fluo-4 AM dye based FLIPR assay. It counts as cell-based. A general note: Calcium flux is commonly read through the fluorescence of an indicator in the cells.

A short description of test [2]: Selectivity ratio of IC50 for human 5-HT3A receptor expressed in HEK293 cells to EC50 for rat alpha7 nAChR expressed in HEK293 cells. It counts as cell-based.
Test [3] has as its target T2, Neuronal acetylcholine receptor subunit alpha-7 (Rattus norvegicus, UniProt Q05941). The experiment in a line: Agonist activity at rat alpha7 nAChR expressed in HEK293 cells co-expressing human RIC-3 assessed as increase in calcium flux measured for 2 mins by Fluo-4 AM dye based FLIPR assay. It counts as cell-based.
A short description of test [4]: Agonist activity at rat alpha1beta1deltaepsilon nAChR expressed in HEK293 cells assessed as increase in calcium flux measured for 2 mins by Fluo-4-AM dye based FLIPR assay. It counts as cell-based. Particulars: HEK293, 2 min.
Test [5] has as its target Neuronal acetylcholine receptor; alpha3/beta4 (Rattus norvegicus, UniProt P04757+P12392). Briefly: Agonist activity at rat alpha3beta4 nAChR expressed in HEK293 cells assessed as increase in calcium flux measured for 2 mins by Fluo-4-AM dye based FLIPR assay. It counts as cell-based.
The target in test [6] is Neuronal acetylcholine receptor; alpha4/beta2 (Rattus norvegicus, UniProt P09483+P12390). Briefly: Agonist activity at rat alpha4beta2 nAChR expressed in HEK293 cells assessed as increase in calcium flux measured for 2 mins by Fluo-4-AM dye based FLIPR assay. It counts as cell-based.
In test [7] the target is T1, 5-hydroxytryptamine receptor 3A. Briefly: Binding affinity to 5-HT3A receptor (unknown origin).
Test [8] concerns the target Neuronal acetylcholine receptor subunit alpha-7 (Homo sapiens, UniProt P36544). Briefly: Binding affinity to human alpha7 nAChR.
The target in test [9] is T2, Neuronal acetylcholine receptor subunit alpha-7. The experiment in a line: Displacement of [125I]alpha-bungarotoxin from rat alpha7 nAChR expressed in HEK293 cell membranes after 2 hrs by topcount scintillation counting analysis. On the technique in general: Displacement assays read how much labelled ligand stays bound in the presence of the test substance.

T2 sequence (Q05941 whole entry): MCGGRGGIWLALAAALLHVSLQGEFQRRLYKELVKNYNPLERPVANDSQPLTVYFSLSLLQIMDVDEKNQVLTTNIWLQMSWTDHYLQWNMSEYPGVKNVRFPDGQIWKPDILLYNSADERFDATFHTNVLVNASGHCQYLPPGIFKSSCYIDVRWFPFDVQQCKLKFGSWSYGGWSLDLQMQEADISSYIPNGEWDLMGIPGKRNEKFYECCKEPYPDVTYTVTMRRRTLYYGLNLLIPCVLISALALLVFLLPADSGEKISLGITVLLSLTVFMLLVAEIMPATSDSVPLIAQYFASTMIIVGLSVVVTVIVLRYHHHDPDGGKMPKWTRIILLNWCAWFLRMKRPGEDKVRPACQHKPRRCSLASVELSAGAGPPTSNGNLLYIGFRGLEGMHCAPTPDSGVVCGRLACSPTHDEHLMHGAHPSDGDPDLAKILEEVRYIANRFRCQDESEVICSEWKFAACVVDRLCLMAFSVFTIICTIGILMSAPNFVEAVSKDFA
Chain of Neuronal acetylcholine receptor subunit alpha-7 (Homo sapiens, UniProt P36544) (P36544 whole entry): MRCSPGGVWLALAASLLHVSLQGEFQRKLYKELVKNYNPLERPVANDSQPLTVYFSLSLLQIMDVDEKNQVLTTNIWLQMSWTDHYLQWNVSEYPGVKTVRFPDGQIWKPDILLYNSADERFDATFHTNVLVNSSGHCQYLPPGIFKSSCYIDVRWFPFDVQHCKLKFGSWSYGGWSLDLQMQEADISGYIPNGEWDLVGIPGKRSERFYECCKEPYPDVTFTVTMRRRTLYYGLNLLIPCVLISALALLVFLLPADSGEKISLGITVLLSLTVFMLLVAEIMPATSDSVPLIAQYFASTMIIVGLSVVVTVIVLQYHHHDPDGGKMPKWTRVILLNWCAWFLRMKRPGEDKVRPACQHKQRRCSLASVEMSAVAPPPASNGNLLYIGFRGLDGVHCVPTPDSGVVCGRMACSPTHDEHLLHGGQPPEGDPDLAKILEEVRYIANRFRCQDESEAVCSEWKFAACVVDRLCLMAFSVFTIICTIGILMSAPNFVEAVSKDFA
Chain of Neuronal acetylcholine receptor; alpha3/beta4 (P04757 whole entry): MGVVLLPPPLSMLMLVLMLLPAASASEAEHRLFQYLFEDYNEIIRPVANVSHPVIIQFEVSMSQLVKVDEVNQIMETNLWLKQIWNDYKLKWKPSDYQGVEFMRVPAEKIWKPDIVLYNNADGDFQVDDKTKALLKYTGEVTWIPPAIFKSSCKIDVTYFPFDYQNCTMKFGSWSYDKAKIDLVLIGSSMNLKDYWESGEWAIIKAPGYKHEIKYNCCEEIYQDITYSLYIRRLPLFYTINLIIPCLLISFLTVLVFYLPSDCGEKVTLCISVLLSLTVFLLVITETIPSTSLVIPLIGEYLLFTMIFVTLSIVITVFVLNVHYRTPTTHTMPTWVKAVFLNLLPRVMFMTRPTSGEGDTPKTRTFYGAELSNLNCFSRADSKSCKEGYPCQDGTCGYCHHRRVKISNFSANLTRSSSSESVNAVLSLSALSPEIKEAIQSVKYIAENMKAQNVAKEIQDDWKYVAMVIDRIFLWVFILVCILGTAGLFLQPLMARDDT
Chain of Neuronal acetylcholine receptor; alpha3/beta4 (P12392 whole entry): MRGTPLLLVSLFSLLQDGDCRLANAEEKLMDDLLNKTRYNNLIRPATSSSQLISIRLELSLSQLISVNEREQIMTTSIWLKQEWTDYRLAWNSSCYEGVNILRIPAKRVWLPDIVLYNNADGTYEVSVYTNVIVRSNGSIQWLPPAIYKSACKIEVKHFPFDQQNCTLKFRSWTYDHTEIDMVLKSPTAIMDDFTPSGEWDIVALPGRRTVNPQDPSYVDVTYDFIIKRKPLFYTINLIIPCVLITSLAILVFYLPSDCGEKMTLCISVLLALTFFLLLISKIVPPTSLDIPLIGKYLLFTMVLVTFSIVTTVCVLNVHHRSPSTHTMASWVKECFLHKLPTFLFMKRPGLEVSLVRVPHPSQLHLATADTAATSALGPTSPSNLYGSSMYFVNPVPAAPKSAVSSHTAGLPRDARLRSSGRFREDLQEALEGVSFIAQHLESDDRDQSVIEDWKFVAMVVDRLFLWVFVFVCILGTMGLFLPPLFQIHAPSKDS
Chain of Neuronal acetylcholine receptor; alpha4/beta2 (P09483 whole entry): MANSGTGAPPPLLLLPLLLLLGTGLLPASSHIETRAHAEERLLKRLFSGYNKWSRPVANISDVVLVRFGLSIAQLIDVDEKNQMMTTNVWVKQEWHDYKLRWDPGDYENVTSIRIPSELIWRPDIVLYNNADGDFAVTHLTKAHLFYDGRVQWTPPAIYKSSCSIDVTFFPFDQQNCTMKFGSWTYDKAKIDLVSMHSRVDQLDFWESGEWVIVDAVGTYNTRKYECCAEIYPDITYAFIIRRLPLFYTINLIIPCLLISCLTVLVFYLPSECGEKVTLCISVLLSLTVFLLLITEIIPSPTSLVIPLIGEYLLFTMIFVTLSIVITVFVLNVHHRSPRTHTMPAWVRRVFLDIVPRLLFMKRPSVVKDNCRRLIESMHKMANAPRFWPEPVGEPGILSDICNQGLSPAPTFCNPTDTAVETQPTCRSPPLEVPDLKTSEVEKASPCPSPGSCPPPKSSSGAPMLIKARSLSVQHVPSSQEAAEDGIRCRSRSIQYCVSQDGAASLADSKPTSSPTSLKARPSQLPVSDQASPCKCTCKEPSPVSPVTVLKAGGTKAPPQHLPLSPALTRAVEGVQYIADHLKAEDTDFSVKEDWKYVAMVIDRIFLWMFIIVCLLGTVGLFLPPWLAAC
Chain of Neuronal acetylcholine receptor; alpha4/beta2 (P12390 whole entry): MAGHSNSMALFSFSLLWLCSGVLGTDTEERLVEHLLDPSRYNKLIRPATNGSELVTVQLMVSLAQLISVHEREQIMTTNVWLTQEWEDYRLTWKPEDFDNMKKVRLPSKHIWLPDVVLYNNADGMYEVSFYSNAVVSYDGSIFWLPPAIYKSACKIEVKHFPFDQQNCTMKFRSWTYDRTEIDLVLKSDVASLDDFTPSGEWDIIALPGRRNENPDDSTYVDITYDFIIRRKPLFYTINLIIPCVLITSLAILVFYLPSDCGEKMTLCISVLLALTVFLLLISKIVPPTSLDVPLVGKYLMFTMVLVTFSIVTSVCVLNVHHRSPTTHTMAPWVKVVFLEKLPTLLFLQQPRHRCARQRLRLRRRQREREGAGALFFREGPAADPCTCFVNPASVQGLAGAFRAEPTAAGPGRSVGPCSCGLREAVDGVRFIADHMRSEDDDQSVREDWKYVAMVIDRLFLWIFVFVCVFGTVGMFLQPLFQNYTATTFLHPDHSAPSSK

`Clc1ccc2c(c1)nc1n2C[C@@]2(CN3CCC2CC3)O1`: in [1], the concentration for half-maximal inhibition (IC50) came out at 6 nM. Further, the Ratio IC50/EC50 in test [2] amounted to 0.2. Also, in test [3], the EC50 came to 31 nM.

For `COc1ccc2c(c1)nc1n2C[C@@]2(CN3CCC2CC3)O1`, in test [1], the IC50 came out at 11 nM. In addition, the Ratio IC50/EC50 in test [2] came out at 1.6. Moreover, in test [3], the EC50 was determined as 7 nM.

`Brc1nc2n(c1Br)CC1(CN3CCC1CC3)O2` (racemic): the IC50 in test [1] is 62 nM. For the same compound, the 50% effective concentration (EC50) in [3] came to 32 nM.

As to `Cc1ccc2c(c1)nc1n2C[C@@]2(CN3CCC2CC3)O1`, the IC50 in test [1] amounted to 13 nM. For the same compound, in test [2], the Ratio IC50/EC50 worked out at 2.6. Further, the 50% effective concentration (EC50) in [3] came out at 5 nM.

Regarding `COc1ccc(-c2cccc3c2nc2n3C[C@@]3(CN4CCC3CC4)O2)cc1`, in test [1], the half-maximal inhibitory concentration (IC50) worked out at 10400 nM. Moreover, the Ratio IC50/EC50 in test [2] was 400. In addition, the EC50 in test [3] was 26 nM.

Consider `Cc1cccc2c1nc1n2C[C@@]2(CN3CCC2CC3)O1`, for which, in [1], the IC50 turned out to be 7 nM. Besides, in [2], the Ratio IC50/EC50 turned out to be 1. Further, the half-maximal effective concentration (EC50) in [3] stood at 7 nM.

As for `Clc1ccc2nc3n(c2c1)C[C@@]1(CN2CCC1CC2)O3`, the IC50 in test [1] came out at 9 nM. Besides, the Ratio IC50/EC50 in [2] worked out at 0.6. Moreover, in test [3], the concentration giving a half-maximal response (EC50) is 14 nM.

On to `c1ccc2c(c1)nc1n2C[C@@]2(CN3CCC2CC3)O1`, for which the concentration for a half-maximal effect (EC50) in [4] was more than 100000 nM; in test [5] it was more than 100000 nM; in test [3], 11 nM; in [6], more than 100000 nM. For the same compound, the 50% inhibitory concentration (IC50) in [1] is 15 nM. Also, the Ratio IC50/EC50 in test [2] stood at 1.4.

Consider `Brc1nc2n(c1Br)C[C@]1(CN3CCC1CC3)O2`, for which the IC50 in test [1] was 9700 nM. Moreover, in [3], the 50% effective concentration (EC50) was determined as 4030 nM.

On to `FC(F)(F)c1ccc2nc3n(c2c1)C[C@@]1(CN2CCC1CC2)O3`, for which, in [1], the IC50 amounted to 17 nM. In addition, in test [2], the Ratio IC50/EC50 was determined as 0.25. Moreover, the 50% effective concentration (EC50) in test [3] was 69 nM.

Take `Brc1nc2n(c1Br)C[C@@]1(CN3CCC1CC3)O2`: the IC50 in test [1] was 43 nM. The EC50 in test [3] was 19 nM.

Turning to `Clc1cccc2c1nc1n2C[C@@]2(CN3CCC2CC3)O1`, the IC50 in test [1] was 4 nM. Besides, the Ratio IC50/EC50 in test [2] was determined as 0.3. For the same compound, the concentration for a half-maximal effect (EC50) in [3] is 16 nM.

Consider `FC(F)(F)c1ccc2c(c1)nc1n2C[C@@]2(CN3CCC2CC3)O1`, for which the concentration for half-maximal inhibition (IC50) in test [1] was determined as 660 nM. Moreover, the Ratio IC50/EC50 in test [2] is 51. In addition, in test [3], the EC50 stood at 13 nM.

For the compound `c1ccc(-c2cnc3c(c2)C[C@@]2(CN4CCC2CC4)O3)cc1`, the Ki in test [7] and in test [8] was 2 nM in each case.

Turning to `FC(F)(F)c1cccc2c1nc1n2C[C@@]2(CN3CCC2CC3)O1`, the IC50 in test [1] was 11 nM. In addition, in test [2], the Ratio IC50/EC50 was 0.5. For the same compound, the concentration for a half-maximal effect (EC50) in [3] amounted to 22 nM.

Consider `c1ccc2c(c1)nc1n2C[C@]2(CN3CCC2CC3)O1`, for which, in test [1], the half-inhibitory concentration (IC50) came to 13000 nM. Moreover, the Ratio IC50/EC50 in [2] came out at 2. Moreover, in [3], the EC50 came out at 6400 nM.

Consider `Clc1cccc2nc3n(c12)C[C@@]1(CN2CCC1CC2)O3`, for which, in [1], the IC50 amounted to 11 nM. Besides, the Ratio IC50/EC50 in [2] was determined as 0.04. In [3], the EC50 came out at 268 nM.

Compound `c1cnc2c(c1)C[C@@]1(CN3CCC1CC3)O2` [AZD0328] returned an inhibition constant (Ki) in [9] of 5 nM.

Regarding `Cc1ccc2nc3n(c2c1)C[C@@]1(CN2CCC1CC2)O3`, the IC50 in [1] amounted to 6 nM. For the same compound, the Ratio IC50/EC50 in test [2] was 0.2. The EC50 in [3] was determined as 33 nM.

A word on the IC50: it is the point on the concentration scale where inhibition reaches its midpoint. As usually defined, the EC50 is the concentration needed to bring the measured effect to its halfway point. As a reminder, the Ki is the equilibrium dissociation constant of an inhibitor or competing ligand from its target.
